This is an account of results in US20090291941A1, “Tyrosine Kinase Inhibitors” (priority 2005, published 2009).

For this assay, the target named is T1, human c-Met (Homo sapiens, UniProt P08581).
T1 construct: Recombinant GST-tagged cytosolic domains of human c-Met; 6xHis; made in house; host or cells: baculovirus system; Sf9 or Sf21 insect cells
In words: In vitro c-Met kinase assay (homogeneous time-resolved fluorescence tyrosine kinase assay). The conditions noted are these: recombinant GST-tagged cytosolic domain of c-Met, 0.2 nM enzyme, 50 μM MgATP, HTRF readout. The format is biochemical. The source says:
Recombinant GST-tagged cytosolic domains of human c-Met and other receptor tyrosine kinases including mouse c-Met, human Ron, KDR, IGFR, EGFR, FGFR, Mer, TrkA and Tie2 are used to determine whether the compounds of the instant invention modulate the enzymatic activities of these kinases.
Soluble recombinant GST-tagged cytosolic domains of c-Met and other receptor tyrosine kinases are expressed in a baculovirus system (Pharmingen) according to a protocol recommended by the manufacturer. The c-DNA encoding each cytosolic domain is subcloned into a baculovirus expression vector (pGcGHLT-A, B or C, Pharmingen) containing an in frame 6× histidine tag and a GST tag. […] The protein concentrations of the fusion proteins are determined using Coomassie Plus Protein Assay (Pierce) with BSA as standard.
The kinase activities of c-Met and other kinases are measured using a modified version of the homogeneous time-resolved tyrosine kinase assay described by Park et al. (1999, Anal. Biochem. 269:94-104).
The procedure for determining the potency of a compound to inhibit c-Met kinase comprises the following steps: • 1. […] Read HTRF signals on a Victor reader (PerkinElmer) in HTRF mode after 60 min. • 6. IC50 is determined by fitting the observed relationship between compound concentration and HTRF signal with a 4-parameter logistic equation. […]
In general terms: In TR-FRET formats the signal depends on donor and acceptor labels being close together.

What is called IC50 is the midpoint of a concentration-inhibition curve.

Structures are written as SMILES.

T1 sequence (P08581 956-1390 limits assumed): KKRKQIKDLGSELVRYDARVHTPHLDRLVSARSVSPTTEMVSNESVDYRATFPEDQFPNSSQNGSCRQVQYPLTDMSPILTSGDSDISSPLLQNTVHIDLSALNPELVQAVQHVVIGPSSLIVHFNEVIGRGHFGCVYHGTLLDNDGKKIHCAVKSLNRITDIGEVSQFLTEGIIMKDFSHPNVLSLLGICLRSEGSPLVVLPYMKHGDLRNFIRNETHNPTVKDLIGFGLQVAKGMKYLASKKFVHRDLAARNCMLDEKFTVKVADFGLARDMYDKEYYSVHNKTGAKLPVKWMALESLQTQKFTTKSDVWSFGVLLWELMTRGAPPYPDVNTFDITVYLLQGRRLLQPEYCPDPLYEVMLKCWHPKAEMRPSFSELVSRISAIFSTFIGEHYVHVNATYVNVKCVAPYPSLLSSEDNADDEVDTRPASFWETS

On to `Nc1ccc2c(c1)C(=O)Nc1cc(-c3ccccc3)cnc1C=C2` [Compound 14, 8-amino-3-phenylpyrido[3,2-c][2]benzazocin-6(5H)-one], for which the IC50 is less than 50 µM. In the case of `Nc1ccc2c(c1)NC(=O)c1cc(-c3ccccc3)cnc1C=C2` [Compound 15, 8-amino-3-phenylpyrido[3,2-c][1]benzazocin-5(6H)-one], the IC50 was less than 50 µM.
